This note sets out measurements from patent US20100094009A1, “NOVEL CRYSTALLINE COMPOUND USEFUL AS GLK ACTIVATOR” (priority 2006, published 2010).

Holding throughout (format): physicochemical
Data set [1] in a line: Conversion of the crystalline form in aqueous media.
Data set [2] in a line: Solubility profile of solid forms.
The nature of data set [3]: Competitive slurries of Form A and Form B in a range of solvents. The text has this:
Form B also has a much higher melting endotherm.

Take `CC(C)Oc1cc(Oc2cnc(C(=O)N3CCC3)cn2)cc(C(=O)Nc2cc[nH]n2)c1` [Form A′, 3-{[5-(azetidin-1-ylcarbonyl)pyrazin-2-yl]oxy}-5-[(1-methylethyl)oxy]-N-1H-pyrazol-3-ylbenzamide]: the “conversion to other solid forms in aqueous media” value (from here on “conversion to other solid forms”) in data set [1] was “convert to the amorphous form”.

In the case of `CC(C)Oc1cc(Oc2cnc(C(=O)N3CCC3)cn2)cc(C(=O)Nc2cc[nH]n2)c1` [amorphous form, 3-{[5-(azetidin-1-ylcarbonyl)pyrazin-2-yl]oxy}-5-[(1-methylethyl)oxy]-N-1H-pyrazol-3-ylbenzamide], the “solubility profile compared with Form A” value in data set [2] is reported as “different solubility profile”.

In the case of `CC(C)Oc1cc(Oc2cnc(C(=O)N3CCC3)cn2)cc(C(=O)Nc2cc[nH]n2)c1` [Form B, 3-{[5-(azetidin-1-ylcarbonyl)pyrazin-2-yl]oxy}-5-[(1-methylethyl)oxy]-N-1H-pyrazol-3-ylbenzamide], in data set [1], the “conversion to other solid forms” value is listed as “does not significantly convert to other forms”. Moreover, the “relative stability of crystalline forms in competitive slurries” value in data set [3] is given as “most stable form”.

For the molecule `CC(C)Oc1cc(Oc2cnc(C(=O)N3CCC3)cn2)cc(C(=O)Nc2cc[nH]n2)c1` [Form A, 3-{[5-(Azetidin-1-ylcarbonyl)pyrazin-2-yl]oxy}-5-[(1-methylethyl)oxy]-N-1H-pyrazol-3-ylbenzamide], in data set [1], the “conversion to other solid forms” value is listed as “convert to the amorphous form”.
